Here are results for 29 molecules from US12503452B2 (Curza Global, LLC, priority 2019, dated 2025).

Structures can show the parent of a compound that is named as a salt. Where two headings read alike, the source gives them in different places.

Experiment [1] concerns E. coli S30 extract (bacterial protein synthesis). The experiment in a line: E. coli S30 extract coupled transcription-translation luciferase assay (inhibition of bacterial protein synthesis). In kind it is biochemical. As to conditions: read-out: S30 IC50 (μM/% inhib.). The protocol:
E. coli S30 extract: Inhibition of bacterial protein synthesis was determined using the E. coli S30 Extract System for Circular DNA (Promega catalog #L-2010) and Luciferase Assay Reagent (Promega catalog #E1500) with slight modifications to a published protocol. Fyfe, C., Sutcliffe, J. A. and Grossman, T. H. (2012) “Development and characterization of a Pseudomonas aeruginosa in vitro coupled transcription-translation assay system for evaluation of translation inhibitors” J. Microbiol. Methods 90(3), 256-261.
Compounds were serial diluted in 0.5 mL microcentrifuge tubes by mixing and transferring 50 μL from the highest concentration to 50 μL of water, mixing and transferring 50 μL of this 2-fold dilution to 50 μL of water. This mixing and transferring was repeated so that there are a total of 8 tubes with serial dilutions of compound at 10× the desired screening concentration that are ultimately diluted to 1× by the addition of S30 luciferase synthesis mixture. Serial dilutions of compounds were added (2 μL) to wells in a black round bottom 96-well plate. Water (2 μL) was used as a “no inhibitor” control in 4 wells/plate. No DNA control reaction mixture (20 μL; see below) was used as a control in 4 wells/plate for background luminescence. S30 luciferase synthesis mixture (18 μL; see below) was added to wells with compounds or water mixture and incubated at 37° C. for 1 hour. Reactions were stopped by transferring to 4° C. refrigerator for 5 minutes then 25 μL of luciferase activity mix was added. Luminescence was measured using a BioTek Synergy HTX plate reader. % Inhibition was determined relative to no inhibitor controls.
S30 luciferase synthesis mixture:
• 445 μL S30 extract, circular • 712 μL S30 Premix without amino acids • 4.45 μL pBESTluc™ DNA (1 μg/μL) • 78 μL complete amino acid mixture • 267 μL water No DNA control: • 20 μL S30 extract, circular • 32 μL S30 Premix without amino acids • 7 μL complete amino acid mixture • 21 μL water Rabbit Reticulocyte lysate

The target of experiment [2] is Rabbit Reticulocyte Lysate (eukaryotic protein synthesis). Kind of experiment: Rabbit reticulocyte lysate luciferase assay (inhibition of eukaryotic protein synthesis). In kind it is biochemical. As to conditions: read-out: Rabbit reticulocyte IC50 (μM/% inhib.). How it is done: Inhibition of eukaryotic protein synthesis was determined using the Rabbit Reticulocyte Lysate System, Nuclease-Treated from Promega (catalog #L-4960) with slight modifications to the manufacturer's protocol. Compounds were serial diluted in 0.5 mL microcentrifuge tubes by mixing and transferring 50 μL from the highest concentration to 50 μL of water, mixing and transferring 50 μL of this 2-fold dilution to 50 μL of water. This mixing and transferring was repeated so that there are a total of 8 tubes with serial dilutions of compound at 10× the desired screening concentration that are ultimately diluted to 1× by the addition of rabbit reticulocyte luciferase synthesis mixture. Serial dilutions of compounds were added ([…]) to wells in a black round bottom 96-well plate. Water (2.5 μL) was used as a “no inhibitor” control in 4 wells/plate. No RNA control reaction mixture ([…]; see below) was used as a control in 4 wells/plate for background luminescence. Rabbit reticulocyte luciferase synthesis mixture (22.5 μL; see below) was added to wells with compounds or water mixture and incubated at 30° C. for 90 minutes. Luciferase assay reagent (25 μL) was added with luminescence measured using a BioTek Synergy HTX plate reader. % Inhibition was determined relative to no inhibitor controls.
Rabbit reticulocyte luciferase synthesis mixture:
• 1,000 μL rabbit reticulocyte lysate • 5.7 μL Luciferase Control RNA (1 μg/μL) • 26 μL complete amino acid mixture • 395 μL water No RNA Control • 70 μL rabbit reticulocyte lysate • 2 μL complete amino acid mixture • 28 μL water Minimum Inhibitory Concentration (MIC)

The mark [3] stands for this setting: class by IC50 or % inhibition @ 1 μM.

Turning to `CC(C)(N)C(=O)N1CCN(Cc2ccc(-n3ccc(NC(=O)N4CCN(C(=O)C(C)(C)N)CC4)nc3=O)cc2)CC1` [Compound 225], the IC50 in experiment [1] (setting [3]) and in experiment [2] (setting [3]) was more than 1 µM throughout.

Turning to `CCC1CN(C(=O)C(C)(C)N)CCN1C(=O)Nc1ccn(-c2ccc(CN3CCC(N)CC3)cc2)c(=O)n1` (stereo not shown) [Compound 55], the IC50 in experiment [1] (setting [3]) is 0.5 to 1 µM; in experiment [2] (setting [3]), more than 1 µM.

With `CC1CN(Cc2ccc(-n3ccc(NC(=O)N4CCN(C(=O)[C@@](C)(N)CO)CC4)nc3=O)cc2)CCC1N` (stereo in doubt) [Compound 224], the IC50 in experiment [1] (setting [3]) is less than 0.5 µM; in experiment [2] (setting [3]), more than 1 µM.

With `COC(=O)[C@@H]1CN(C(=O)C(C)(C)N)CCN1C(=O)Nc1ccn(-c2ccc(CN3CCC(N)CC3)cc2)c(=O)n1` [Compound 63], the IC50 in experiment [1] (setting [3]) is 0.5 to 1 µM; in experiment [2] (setting [3]), more than 1 µM.

With `CC[C@@H]1CN(C(=O)Nc2ccn(-c3ccc(CN4CCC(N)CC4)cc3)c(=O)n2)CCN1C(=O)C(C)(C)N` [Compound 67], the IC50 in experiment [1] (setting [3]) and in experiment [2] (setting [3]) was more than 1 µM each time.

On to `CC(C)(N)C(=O)N1CCN(C(=O)Nc2ccn(-c3ccc(C(C)(C)CN4CC[C@@H](CN)C4)cc3)c(=O)n2)CC1` [Compound 38], for which the IC50 in experiment [1] (setting [3]) and in experiment [2] (setting [3]) was more than 1 µM throughout.

In the case of `CC(C)(N)C(=O)N1CCN(C(=O)Nc2ccn(-c3ccc(CN4CC(CCN)(C(=O)O)C4)cc3)c(=O)n2)CC1` [Compound 369, hydrochloride salt], the IC50 in experiment [1] (% inhibition @ 1 μM) and in experiment [2] (% inhibition @ 1 μM) was more than 1 µM each time.

With `NC1CCN(Cc2ccc(-n3ccc(NC(=O)N4CCCNCC4)nc3=O)cc2)CC1` [Compound 54], the IC50 in experiment [1] (setting [3]) and in experiment [2] (setting [3]) was more than 1 µM in each case.

Regarding `CC(C)(N)C(=O)N1CCN(C(=O)Nc2ccn(-c3ccc(CCN4CC[C@@H](CN)C4)cc3)c(=O)n2)CC1` [Compound 18], the IC50 in experiment [1] (setting [3]) was less than 0.5 µM; in experiment [2] (setting [3]), more than 1 µM.

For `CC(C)(N)C(=O)N1CCN(C(=O)Nc2ccn(-c3ccc(CCN4CCCC(CN)C4)cc3)c(=O)n2)CC1` (stereo not shown) [Compound 10], the IC50 in experiment [1] (setting [3]) is less than 0.5 µM; in experiment [2] (setting [3]), more than 1 µM.

For `CC(C)(N)CC(=O)N1CCN(C(=O)Nc2ccn(-c3ccc(CN4CCC(N)CC4)c(C(F)(F)F)c3)c(=O)n2)CC1` [Compound 106], the IC50 in experiment [1] (setting [3]) and in experiment [2] (setting [3]) was more than 1 µM each time.

With `CC(C)(N)C(=O)N1CCN(C(=O)Nc2ccn(-c3ccc(CN4CCC(F)(F)CC4)cc3)c(=O)n2)CC1` [Compound 383], the IC50 in experiment [1] (% inhibition @ 1 μM) and in experiment [2] (% inhibition @ 1 μM) was more than 1 µM each time.

With `C[C@](N)(CO)C(=O)N1CCN(C(=O)Nc2ccn(-c3ccc(CCN4CC[C@H](N)C4)cc3)c(=O)n2)CC1` [Compound 13], the IC50 in experiment [1] (setting [3]) and in experiment [2] (setting [3]) was more than 1 µM in each case.

On to `CC(C)(N)C(=O)N1CCN(C(=O)Nc2ccn(-c3ccc(CCN4CC[C@H](CN)C4)cc3)c(=O)n2)CC1` [Compound 17], for which the IC50 in experiment [1] (setting [3]) was less than 0.5 µM; in experiment [2] (setting [3]), more than 1 µM.

On to `CC(C)(N)C(=O)N1CCN(C(=O)Nc2ccn(-c3ccc(C(C)(C)CN4CC[C@H](CN)C4)cc3)c(=O)n2)CC1` [Compound 39], for which the IC50 in experiment [1] (setting [3]) and in experiment [2] (setting [3]) was more than 1 µM throughout.

With `CC(C)(N)C(=O)N1CC2CCC1CN2C(=O)Nc1ccn(-c2ccc(CN3CCC(N)CC3)cc2)c(=O)n1` (stereo not shown) [Compound 87], the IC50 in experiment [1] (setting [3]) and in experiment [2] (setting [3]) was more than 1 µM in each case.

`Cc1cc(-n2ccc(NC(=O)N3CCN(C(=O)CC(C)(C)N)CC3)nc2=O)ccc1CN1CCC(N)CC1` [Compound 94]: the IC50 in experiment [1] (setting [3]) and in experiment [2] (setting [3]) was more than 1 µM throughout.

`CC(C)[C@H]1CN(C(=O)C(C)(C)N)CCN1C(=O)Nc1ccn(-c2ccc(CN3CCC(N)CC3)cc2)c(=O)n1` [Compound 77]: the IC50 in experiment [1] (setting [3]) and in experiment [2] (setting [3]) was more than 1 µM each time.

In the case of `CC[C@H]1CN(C(=O)Nc2ccn(-c3ccc(CN4CCC(N)CC4)cc3)c(=O)n2)CCN1C(=O)C(C)(C)N` [Compound 66], the IC50 in experiment [1] (setting [3]) and in experiment [2] (setting [3]) was more than 1 µM in each case.

Take `NC1CCN(Cc2ccc(-n3ccc(NC(=O)N4CCC[C@H](N)C4)nc3=O)cc2)CC1` [Compound 48]: the IC50 in experiment [1] (setting [3]) and in experiment [2] (setting [3]) was more than 1 µM each time.

For the molecule `NCC1CCCN(C(=O)Nc2ccn(-c3ccc(CN4CCC(N)CC4)cc3)c(=O)n2)C1` (stereo not shown) [Compound 46], the IC50 in experiment [1] (setting [3]) and in experiment [2] (setting [3]) was more than 1 µM throughout.

As for `CC1(N)CCN(Cc2ccc(-n3ccc(NC(=O)N4CCN(C(=O)[C@@](C)(N)CO)CC4)nc3=O)cc2Cl)CC1` [Compound 360], the IC50 is less than 0.5 µM in experiment [1] (% inhibition @ 1 μM) and more than 1 µM in experiment [2] (% inhibition @ 1 μM).

As to `Cc1cc(-n2ccc(NC(=O)N3CCN(C(=O)C(C)(C)N)CC3)nc2=O)ccc1CN1CCC(NC(=N)N)CC1` [Compound 104], the IC50 in experiment [1] (setting [3]) was less than 0.5 µM; in experiment [2] (setting [3]), more than 1 µM.

Turning to `CC(C)(N)C(=O)N1CCN(C(=O)Nc2ccn(-c3cccc(CCN4CC[C@H](N)C4)c3)c(=O)n2)CC1` [Compound 6], the IC50 in experiment [1] (setting [3]) and in experiment [2] (setting [3]) was more than 1 µM throughout.

Regarding `CC(C)(N)C(=O)N1CCN(C(=O)Nc2ccn(-c3ccc(CCN4CCC(CN)CC4)cc3)c(=O)n2)CC1` [Compound 1], the IC50 in experiment [1] (setting [3]) is 0.5 to 1 µM; in experiment [2] (setting [3]), more than 1 µM.

Consider `NC[C@H]1CCN(C(=O)Nc2ccn(-c3ccc(CN4CCC(N)CC4)cc3)c(=O)n2)C1` [Compound 52], for which the IC50 in experiment [1] (setting [3]) and in experiment [2] (setting [3]) was more than 1 µM throughout.

Regarding `CC(C)(N)C(=O)N1CCN(C(=O)Nc2ccn(-c3cccc(CN4CCC(NC(=N)N)CC4)c3)c(=O)n2)CC1` [Compound 102], the IC50 in experiment [1] (setting [3]) and in experiment [2] (setting [3]) was more than 1 µM throughout.

Regarding `C[C@H]1CN(C(=O)Nc2ccn(-c3ccc(CN4CCC(N)CC4)cc3)c(=O)n2)CCN1C(=O)C(C)(C)N` [Compound 72], the IC50 in experiment [1] (setting [3]) is 0.5 to 1 µM; in experiment [2] (setting [3]), more than 1 µM.

Take `CC(C)(N)C(=O)N1CCN(C(=O)Nc2ccn(-c3ccc(CC[N+]4(C)CCC(N)CC4)cc3)c(=O)n2)CC1` (stereo not shown) [Compound 196]: the IC50 in experiment [1] (setting [3]) is less than 0.5 µM; in experiment [2] (setting [3]), more than 1 µM.
